Assay results published in ChEMBL document CHEMBL1139959, “Optimization of triaryl bis-sulfones as cannabinoid-2 receptor ligands” (Bioorg Med Chem Lett, 2007).
pKi: −log10 of the molar value.

Columns and labels:
[1] = species on record: Homo sapiens; test: Selectivity for CB1 receptor over CB2 receptor
[2] = target: Cannabinoid receptor 2 (Homo sapiens) (UniProt P34972); test: Binding affinity to CB2 receptor
[3] = in vivo; conditions: rat, plasma, po, 10 mg/kg
Description: AUC in rat at 10 mg/kg, po after 6 hrs

Cannabinoid receptor 2 (Homo sapiens), sequence (P34972 whole entry, looked up): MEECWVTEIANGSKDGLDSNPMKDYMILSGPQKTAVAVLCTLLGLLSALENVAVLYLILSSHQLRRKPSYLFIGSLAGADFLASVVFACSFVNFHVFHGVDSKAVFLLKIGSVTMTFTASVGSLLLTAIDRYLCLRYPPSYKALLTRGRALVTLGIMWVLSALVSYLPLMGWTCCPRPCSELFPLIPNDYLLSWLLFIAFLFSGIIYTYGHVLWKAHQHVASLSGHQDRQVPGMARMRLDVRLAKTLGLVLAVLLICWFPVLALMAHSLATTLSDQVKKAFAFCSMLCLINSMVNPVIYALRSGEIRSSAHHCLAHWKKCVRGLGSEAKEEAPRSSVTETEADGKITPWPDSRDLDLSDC

Row | Compound | Ratio Ki [1] | pKi [2] | AUC at 6 h [3]
1 | C[C@H](NS(=O)(=O)C(F)(F)F)c1ccc(S(=O)(=O)c2ccc(Cl)cc2S(=O)(=O)c2c(F)cccc2NC2CC2)cc1 | 688 | 7.84 | 
2 | C[C@H](NS(=O)(=O)C(F)(F)F)c1ccc(S(=O)(=O)c2ccc(Cl)cc2S(=O)(=O)c2ccccn2)cc1 | 1150 | 8.44 | 
3 | C[C@H](NS(C)(=O)=O)c1ccc(S(=O)(=O)c2ccc(Cl)cc2S(=O)(=O)c2ccccn2)cc1 | 4400 |  | 
4 | C[C@H](NS(C)(=O)=O)c1ccc(S(=O)(=O)c2ccc(Cl)cc2S(=O)(=O)c2ccccc2F)cc1 | 4390 |  | 6.33 µM·h
5 | C[C@H](NS(=O)(=O)C(F)(F)F)c1ccc(S(=O)(=O)c2ccc(Cl)cc2S(=O)(=O)c2c(F)cccc2F)cc1 | 642 | 8.24 | 
6 | C[C@H](NS(=O)(=O)C(F)(F)F)c1ccc(S(=O)(=O)c2ccc(N3CCNCC3)cc2S(=O)(=O)c2ccccc2F)cc1 | 31 |  | 
7 | C[C@H](NS(=O)(=O)C(F)(F)F)c1ccc(S(=O)(=O)c2ccc(O)cc2S(=O)(=O)c2ccccc2F)cc1 | 1570 |  | 
8 | CNS(=O)(=O)c1cc(Cl)ccc1S(=O)(=O)c1ccc([C@H](C)NS(C)(=O)=O)cc1 | 64 |  | 
9 | COCCOc1ccc(S(=O)(=O)c2ccc([C@H](C)NS(=O)(=O)C(F)(F)F)cc2)c(S(=O)(=O)c2ccccc2F)c1 | 1600 | 8.60 | 
10 | C[C@H](NS(C)(=O)=O)c1ccc(S(=O)(=O)c2ccc(Cl)cc2S(=O)(=O)N(C)C)cc1 | 58 |  | 
11 | C[C@H](NS(=O)(=O)C(F)(F)F)c1ccc(S(=O)(=O)c2ccc(Cl)cc2S(=O)(=O)c2c(F)cccc2N2CCOCC2)cc1 | 18 |  | 
12 | C[C@H](N)c1ccc(S(=O)(=O)c2ccc(Cl)cc2S(=O)(=O)c2ccccc2F)cc1 | 14 |  | 
13 | CCCS(=O)(=O)c1cc(Cl)ccc1S(=O)(=O)c1ccc([C@H](C)NS(C)(=O)=O)cc1 | 57 |  | 
14 | C[C@H](NS(=O)(=O)C(F)(F)F)c1ccc(S(=O)(=O)c2ccc(C3CC3)cc2S(=O)(=O)c2ccccc2F)cc1 | 2240 | 8.85 | 
15 | Cc1ccc(S(=O)(=O)c2ccc([C@H](C)NS(=O)(=O)C(F)(F)F)cc2)c(S(=O)(=O)c2ccccc2F)c1 | 2290 | 8.96 | 
16 | C[C@H](NS(=O)(=O)C(F)(F)F)c1ccc(S(=O)(=O)c2ccc(NC3CC3)cc2S(=O)(=O)c2ccccc2F)cc1 | 66 | 8.31 | 
17 | C[C@H](NS(C)(=O)=O)c1ccc(S(=O)(=O)c2ccc(Cl)cc2S(=O)(=O)C2CCCCC2)cc1 | 345 | 8.05 | 
18 | Cc1occc1S(=O)(=O)c1cc(Cl)ccc1S(=O)(=O)c1ccc([C@H](C)NS(C)(=O)=O)cc1 | 538 | 6.89 | 
19 | C[C@H](NS(=O)(=O)C(F)(F)F)c1ccc(S(=O)(=O)c2ccc(OC(F)(F)F)cc2S(=O)(=O)c2ccccc2F)cc1 | 525 |  | 

Row | Compound | Ratio Ki [1] | pKi [2] | AUC at 6 h [3]
20 | C[C@H](NCCC(F)(F)F)c1ccc(S(=O)(=O)c2ccc(Cl)cc2S(=O)(=O)c2ccccc2F)cc1 | 105 |  | 
21 | C[C@H](NS(=O)(=O)C(F)(F)F)c1ccc(S(=O)(=O)c2ccc(Cl)cc2S(=O)(=O)NC(C)(C)C)cc1 | 123 | 6.87 | 
22 | C[C@H](NS(=O)(=O)C(F)(F)F)c1ccc(S(=O)(=O)c2ccc(Cl)cc2S(=O)(=O)c2ncccn2)cc1 | 859 | 7.68 | 
23 | CCNC(=O)N[C@@H](C)c1ccc(S(=O)(=O)c2ccc(Cl)cc2S(=O)(=O)c2ccccc2F)cc1 |  | < 5.00 | 
24 | C[C@H](NS(=O)(=O)C(F)(F)F)c1ccc(S(=O)(=O)c2ccc(Cl)cc2S(=O)(=O)c2c(F)cccc2N(C)C)cc1 | 60 | 6.94 | 
25 | C[C@H](NS(=O)(=O)C(F)(F)F)c1ccc(S(=O)(=O)c2ccc(Cl)cc2S(=O)(=O)c2c(N)cccc2F)cc1 | 1190 |  | 
26 | C[C@H](NS(=O)(=O)C(F)(F)F)c1ccc(S(=O)(=O)c2ccc(Cl)cc2S(=O)(=O)N2CCCCC2)cc1 | 231 | 7.24 | 
27 | C[C@H](NC(=O)C(F)(F)F)c1ccc(S(=O)(=O)c2ccc(Cl)cc2S(=O)(=O)c2ccccc2F)cc1 | 784 |  | 
28 | C[C@H](NCC(F)(F)F)c1ccc(S(=O)(=O)c2ccc(Cl)cc2S(=O)(=O)c2ccccc2F)cc1 | 325 |  | 
29 | CCOc1ccc(S(=O)(=O)c2ccc([C@H](C)NS(=O)(=O)C(F)(F)F)cc2)c(S(=O)(=O)c2ccccc2F)c1 | 1960 | 9.05 | 
30 | C[C@H](NS(C)(=O)=O)c1ccc(S(=O)(=O)c2ccc(Cl)cc2S(=O)(=O)c2cccc3cccnc23)cc1 | 31 |  | 
31 | CNc1cccc(F)c1S(=O)(=O)c1cc(Cl)ccc1S(=O)(=O)c1ccc([C@H](C)NS(=O)(=O)C(F)(F)F)cc1 | 212 |  | 
32 | C[C@H](NS(=O)(=O)C(F)(F)F)c1ccc(S(=O)(=O)c2ccc(Cl)cc2S(=O)(=O)N2CCOCC2)cc1 | 99 | 6.72 | 
33 | C[C@H](NS(=O)(=O)C(F)(F)F)c1ccc(S(=O)(=O)c2ccc(N)cc2S(=O)(=O)c2ccccc2F)cc1 | 170 |  | 
34 | CC(=O)N[C@@H](C)c1ccc(S(=O)(=O)c2ccc(Cl)cc2S(=O)(=O)c2ccccc2F)cc1 | 250 | 7.22 | 
35 | C[C@H](NS(C)(=O)=O)c1ccc(S(=O)(=O)c2ccc(Cl)cc2S(=O)(=O)NS(C)(=O)=O)cc1 | 36 | 5.56 | 
36 | C[C@H](NS(=O)(=O)C(F)(F)F)c1ccc(S(=O)(=O)c2ccc(C(F)(F)F)cc2S(=O)(=O)c2ccccc2F)cc1 | 2080 |  | 
37 | C[C@H](NS(=O)(=O)C(F)(F)F)c1ccc(S(=O)(=O)c2ccccc2S(=O)(=O)c2ccccc2F)cc1 | 426 |  | 
38 | C[C@H](NS(C)(=O)=O)c1ccc(S(=O)(=O)c2ccc(Cl)cc2S(=O)(=O)c2cccc[n+]2[O-])cc1 | 840 |  | 
